Assay results as given in patent US9150528B2, “Compound having detrusor muscle-contracting activity and urethral sphincter muscle-relaxing activity” (ONO PHARMACEUTICAL CO., LTD., priority 2009, dated 2015).

Experiments:
[1] = tested on: underactive bladder models; test: Residual urinary volumes and bladder capacities in underactive bladder models (cystometry); assay type: in vivo, rat; conditions: 0.01 mg/kg, oral, underactive bladder model rats, versus normal group
Method: The underactive bladder models were constructed in accordance with the following procedure. Female Wistar rats (8 to 9 weeks age) were anesthetized by intraperitoneal administration of Somnopentyl (40 mg/kg), followed by dorsal shaving, and fixed in abdominal positions. Each of the dorsal areas was disinfected with chlorhexidine gluconate (5% hibitane liquid). The waist area was median-incised to expose the spinal column. After excision of the fifth lumbar spinous process, a silicone rubber was inserted into the sixth lumbar direction from a hole bored by a mini drill. For the purpose of avoiding infections, after completion of the surgical operation, benzylpenicillin potassium (25000 U/0.25 mL/body) was added dropwise to the incised area. The muscle and skin of the incised area were sutured with silk threads, and iodine tincture was applied to the sutured area. After the operation, maintenance of voiding was carried out by manual compressions three times daily. For the purpose of avoiding infections, potassium penicillin G (1.25 units/body) was administered subcutaneously. More than 5 days prior to cystometric evaluation, a catheter for cystometrogram was indwelled in the bladder. Anesthesia with sodium pentobarbital (40 mg/kg by intraperitoneal administration) and incision along the midline of the abdomen were carried out, followed by incision of the apex of the bladder. A catheter for cystometrogram filled with physiological saline was inserted into the bladder from a hole of the apical area, and fixed by ligation using silk suture threads. […]
The rats were anesthetized with ether and housed in a Bollmann cage 2 weeks after the construction of the models. To the front end of each of the bladder catheters, a pressure transducer via a three-way cock was connected, and the intravesical pressure was recorded using a strain pressure amplifier•recorder. […]
[…] After 1 hr, physiological saline was perfused into the bladder at a flow rate of 2 mL/h and voiding parameters (bladder capacity and residual urinary volume) were measured. […] Voiding parameters were calculated for each cystometry. […]

[2] = tested on: normal rats; test: Blood pressures and heart rates in normal rats; assay type: in vivo, rat; conditions: oral
Method: The blood pressures and heart rates of female Wistar rats were measured in accordance with the following procedure. On the day of measurement, indwelling of catheters for blood pressure•heart rate measurement was carried out under anesthesia with ether. The back of the neck of each rat was incised; a feeding catheter (Atom Medical Corporation) filled with heparinized physiological saline was introduced from the back of the neck; the catheter was inserted into the common carotid artery; and the surgical incision was closed. The measurements were carried out in a Bollmann cage under the conscious state, and the evaluations were carried out after confirming that the individual parameters were stabilized. After confirming the stabilization of blood pressure and heart rate, the test compound which was prepared using injectable water containing equimolar NaOH was orally administered at a dose of 5 mL/kg.
The catheter drawn from the back of the neck was connected to a pressure transducer (DX-200, NIHON KOHDEN CORP.), and the blood pressures and heart rates were measured using an amplifier for pressure measurement (Gould Instrument). The blood pressures and heart rates were recorded using a recorder (LINEARCORDERWR3320, GRAPHTEC). For each individual, rates of increase and decrease in average blood pressure and heart rate before administration and 30, 60, 120, and 180 min after administration were calculated with respect to the values of each individual before administration. Changes in blood pressure and heart rate before and after administration of the test compound were evaluated.

- bladder capacity [1]: significant decrease
Compound: C=C(C)CC[C@](C)(O)C/C=C/[C@H]1CCC(=O)[C@@H]1CCSc1nc(C(=O)O)cs1 [Comparative compound A, 2-[(2-{(1R,2R)-2-[(1E,4S)-4-hydroxy-4,7-dimethyl-1,7-octadien-1-yl]-5-oxocyclopentyl}ethyl)thio]-1,3-thiazole-4-carboxylic acid]
- effect on the blood pressure ([2]; 0.3 mg/kg): tendency to increase
- increase in blood pressure ([2]; 1 mg/kg): about 10%
